Data set [1] concerns LRRK2(WT) and LRRK2(G2019S). The arrangement: method as in PMID 34515301. To be noted: cited from earlier work.
The conditions of data set [2]: LRRK2-IN-1 ref 18; HG-10-102-01 ref 19; cited from earlier work.
Data set [3] concerns the target T1, LRRK2^RCKW (Homo sapiens, UniProt Q5S007).
T1 construct: His6-Z (TEV site) (N, cleaved yes); made in house; host or cells: Sf9 insect cells (baculovirus)
T1 sequence (Q5S007 1327-2527): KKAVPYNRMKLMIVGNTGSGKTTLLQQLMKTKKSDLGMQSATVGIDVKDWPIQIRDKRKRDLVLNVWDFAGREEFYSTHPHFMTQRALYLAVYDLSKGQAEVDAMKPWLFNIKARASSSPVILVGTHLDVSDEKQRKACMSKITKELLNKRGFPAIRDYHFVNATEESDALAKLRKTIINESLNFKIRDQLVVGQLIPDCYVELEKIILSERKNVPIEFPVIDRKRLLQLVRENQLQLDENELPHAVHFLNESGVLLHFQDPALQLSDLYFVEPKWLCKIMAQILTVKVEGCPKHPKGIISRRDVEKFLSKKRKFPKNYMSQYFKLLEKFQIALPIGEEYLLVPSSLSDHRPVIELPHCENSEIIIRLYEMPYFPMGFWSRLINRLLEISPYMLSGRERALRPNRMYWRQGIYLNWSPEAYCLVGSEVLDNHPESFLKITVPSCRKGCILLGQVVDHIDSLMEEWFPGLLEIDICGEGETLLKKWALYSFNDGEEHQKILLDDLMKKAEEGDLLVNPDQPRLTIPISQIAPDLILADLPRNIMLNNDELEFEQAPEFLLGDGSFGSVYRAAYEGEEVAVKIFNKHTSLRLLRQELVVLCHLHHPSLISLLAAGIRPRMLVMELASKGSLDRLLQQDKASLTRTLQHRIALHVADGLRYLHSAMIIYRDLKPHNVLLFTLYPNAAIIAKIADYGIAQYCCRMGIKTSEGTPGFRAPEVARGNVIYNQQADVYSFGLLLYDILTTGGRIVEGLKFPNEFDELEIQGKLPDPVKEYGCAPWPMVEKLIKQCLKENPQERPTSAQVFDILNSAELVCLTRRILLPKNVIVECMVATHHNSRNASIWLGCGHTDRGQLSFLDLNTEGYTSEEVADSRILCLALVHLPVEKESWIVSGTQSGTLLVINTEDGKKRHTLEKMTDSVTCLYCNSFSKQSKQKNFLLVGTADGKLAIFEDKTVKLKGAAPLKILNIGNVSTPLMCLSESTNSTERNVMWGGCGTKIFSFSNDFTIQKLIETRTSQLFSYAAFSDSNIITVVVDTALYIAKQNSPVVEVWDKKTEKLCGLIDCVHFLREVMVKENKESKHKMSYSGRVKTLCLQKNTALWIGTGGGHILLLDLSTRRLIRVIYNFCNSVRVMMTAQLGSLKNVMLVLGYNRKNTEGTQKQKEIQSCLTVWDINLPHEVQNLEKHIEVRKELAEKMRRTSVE
Briefly: MS-based kinase activity assay (Rab8A phosphorylation). It is filed as biochemical. To be noted: 50 nM LRRK2^RCKW, 5 μM Rab8A, 1 mM ATP, ESI-MS readout.
Source text: To compare the activity of the selected LRRK2 inhibitors, we developed a mass spectrometry (MS)–based kinase activity assay using an established endogenous substrate. We subjected the Rab8A GTPase domain (residues 6 to 176) to LRRK2^RCKW phosphorylation in the presence of varying concentrations of a given inhibitor and directly quantified the amount of phosphorylated Rab8A (pRab8A) by ESI-MS (fig. S1C).
To determine the IC50 values for a set of LRRK2 inhibitors, the phosphorylation of the LRRK2 substrate Rab8A was assessed by applying an MS-based activity assay. LRRK2^RCKW protein (50 nM) was mixed with 5 μM substrate and varying concentrations of the inhibitors in assay buffer [20 mM Hepes (pH 7.4), 150 mM NaCl, 0.5 mM TCEP, 20 μM GDP, 2.5 mM MgCl2, and 0.5% glycerol]. The reaction was started by adding 1 mM ATP and incubated at room temperature (RT). […] Data were acquired using the MassHunter LC/MS Data Acquisition software and analyzed using the BioConfirm vB.08.00 tool (both Agilent Technology) (https://www.agilent.com/en/product/software-informatics/mass-spectrometry-software, RRID: SCR_016657). The peak intensities of the unphosphorylated and phosphorylated Rab8A species were quantified and the relative kinase activity was calculated. […]

Data set [4] relates to LRRK2^KW (G2019S). Briefly: Differential scanning fluorimetry (DSF) thermal shift assay, G2019S mutant. It is filed as binding. The settings on record: inhibitor 10 μM. (Differential scanning fluorimetry follows unfolding on heating by fluorescence.)
Procedure: The assay was performed according to a previously established protocol ([37]). Briefly, a solution of 4 μM LRRK2^KW protein in assay buffer [20 mM Hepes (pH 7.4), 150 mM NaCl, 0.5 mM Tris (2-carboxyethyl) phosphine (TCEP), 20 μM GDP, 2.5 mM MgCl2, and 0.5% glycerol] was mixed 1:1000 with SYPRO Orange (Sigma-Aldrich). The inhibitors to be tested were added to a final concentration of 10 μM. Twenty microliters of each sample were placed in a 96-well plate and heated gradually from 25° to 95°C. Fluorescence was monitored using an MX3005P real-time PCR instrument (Stratagene) with excitation and emission filters set to 465 and 590 nm, respectively. Data were analyzed with the MxPro software.

These results are taken from PMC10691770, “Inhibition of Parkinson’s disease–related LRRK2 by type I and type II kinase inhibitors: Activity and structures” (Science Advances, 2023).

For the compound `Cc1ccc(C(=O)Nc2ccc(CN3CCN(C)CC3)c(C(F)(F)F)c2)cc1C#Cc1cnc2[nH]ncc2c1` [GZD-824], the “IC50 for LRRK2(WT) lower than that for LRRK2(G2019S)” value in data set [1] (in vitro phosphorylation assay) is ~ 4 fold. For the compound `COc1cc(C(=O)N2CCC(N3CCN(C)CC3)CC2)ccc1Nc1ncc2c(n1)N(C)c1ccccc1C(=O)N2C` [LRRK2-IN-1], in data set [2], the brain penetrance result is on record as “low brain penetrance”. Further, the “IC50 (inhibition of Rab8A phosphorylation), in words” value in data set [3] is “high nanomolar range”. For `CNc1nc(Nc2ccc(C(=O)N3CCOCC3)cc2OC)ncc1Cl` [HG-10-102-01], the brain penetrance entry in data set [2] is reported as “brain penetrant”. As to `CC1CN(c2cc(-c3n[nH]c4ccc(OC5(C)CC5)cc34)ncn2)CC(C)O1` (stereo not drawn) [MLi-2], the “inhibition of LRRK2(G2019S) better than LRRK2(WT)” value in data set [1] (purified full-length LRRK2, in vitro assay with a peptide kinase substrate) is reported as ~ 2 fold. The ΔTM in data set [4] came to 18 K.
